# Columns and labels:
# rice = assay: Test B flooded paddy test; type: in vivo, Oryza sativa; conditions: 250 g ai/ha, Flood, 13 days, 0 to 100 scale (0 no effect, 100 complete control)
# Outline: (§1)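 2-leaf stage; pots flooded 3 cm over soil; compound dosed into paddy water; depth kept constant. Greenhouse, 13 d. Visual rating vs controls, 0 (no effect)–100 (complete control). Dash = no result.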
# blackgrass = assay: Test A postemergence; type: in vivo, Alopecurus myosuroides; conditions: 1000 g ai/ha, Postemergence; 0 to 100 scale
# Outline: (§2)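 Weeds and crops in loam–sand blend were sprayed preemergence onto soil or postemergence at 2–10 cm (one- to two-leaf stage). Test chemicals were in a non-phytotoxic solvent with surfactant. After 10 days in the greenhouse, injury was rated visually against untreated controls on a 0 (no effect) to 100 (complete control) scale.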
# ragweed [1] = assay: Test A preemergence; type: in vivo, Ambrosia artemisiifolia; conditions: 1000 g ai/ha, 0 to 100 scale (0 no effect, 100 complete control), 10 days
# Outline: as §2
# corn = assay: Test A postemergence; type: in vivo, Zea mays; conditions: 1000 g ai/ha, Postemergence; 0 to 100 scale
# Outline: as §2
# sedge, umbrella = assay: Test B flooded paddy test; type: in vivo, Cyperus difformis; conditions: 250 g ai/ha, Flood, 13 days, 0 to 100 scale (0 no effect, 100 complete control)
# Outline: as §1
# ragweed [2] = assay: Test A postemergence; type: in vivo, Ambrosia artemisiifolia; conditions: 1000 g ai/ha, Postemergence; 0 to 100 scale
# Outline: as §2
# foxtail, giant [3] = assay: Test A preemergence; type: in vivo, Setaria faberi; conditions: 1000 g ai/ha, 0 to 100 scale (0 no effect, 100 complete control), 10 days
# Outline: as §2
# ryegrass, Italian [4] = assay: Test A preemergence; type: in vivo, Lolium multiflorum; conditions: 1000 g ai/ha, 0 to 100 scale (0 no effect, 100 complete control), 10 days
# Outline: as §2
# Pigweed, Redroot [5] = assay: Test A postemergence; type: in vivo, Amaranthus retroflexus; conditions: 1000 g ai/ha, Postemergence; 0 to 100 scale
# Source text: (§3) Seeds of plant species selected from barnyardgrass (Echinochloa crusgalli), blackgrass (Alopecurus myosuroides), corn (Zea mays), foxtail, giant (giant foxtail, Setaria faberi), goosegrass (Eleusine indica), kochia (Bassia scoparia), oat, wild (wild oat, Avena fatua), pigweed, palmer (palmer amaranth, palmer pigweed, Amaranthus palmeri), Pigweed, Redroot (redroot pigweed, Amaranthus retroflexus), ragweed (common ragweed, Ambrosia artemisiifolia), ryegrass, Italian (italian ryegrass, Lolium multiflorum), soybean (Glycine max), and wheat (Triticum aestivum) were planted into a blend of loam soil and sand and treated preemergence with a directed soil spray using test chemicals formulated in a non-phytotoxic solvent mixture which included a surfactant. At the same time, plants selected from these crops and weed species and also galium (catchweed bedstraw, Galium aparine) and horseweed (Erigeron canadensis) were planted in pots containing the same blend of loam soil and sand and treated with postemergence applications of test chemicals formulated in the same manner. Plants ranged in height from 2 to 10 cm and were in the one- to two-leaf stage for the postemergence treatment. Treated plants and untreated controls were maintained in a greenhouse for 10 days, after which time all treated plants were compared to untreated controls and visually evaluated for injury. Plant response ratings, summarized in Table A, are based on a 0 to 100 scale where 0 is no effect and 100 is complete control. A dash (-) response means no test result.
# wheat = assay: Test A postemergence; type: in vivo, Triticum aestivum; conditions: 1000 g ai/ha, Postemergence; 0 to 100 scale
# Outline: as §2
# barnyardgrass [6] = assay: Test A preemergence; type: in vivo, Echinochloa crusgalli; conditions: 1000 g ai/ha, 0 to 100 scale (0 no effect, 100 complete control), 10 days
# Outline: as §2
# barnyardgrass [7] = assay: Test A postemergence; type: in vivo, Echinochloa crusgalli; conditions: 1000 g ai/ha, Postemergence; 0 to 100 scale
# Outline: as §2
# kochia [8] = assay: Test A postemergence; type: in vivo, Bassia scoparia; conditions: 1000 g ai/ha, Postemergence; 0 to 100 scale
# Outline: as §2
# ryegrass, Italian [9] = assay: Test A postemergence; type: in vivo, Lolium multiflorum; conditions: 1000 g ai/ha, Postemergence; 0 to 100 scale
# Outline: as §2
# kochia [10] = assay: Test A preemergence; type: in vivo, Bassia scoparia; conditions: 1000 g ai/ha, 0 to 100 scale (0 no effect, 100 complete control), 10 days
# Outline: as §2
# foxtail, giant [11] = assay: Test A postemergence; type: in vivo, Setaria faberi; conditions: 1000 g ai/ha, Postemergence; 0 to 100 scale
# Outline: as §2
# ducksalad = assay: Test B flooded paddy test; type: in vivo, Heteranthera limosa; conditions: 250 g ai/ha, Flood, 13 days, 0 to 100 scale (0 no effect, 100 complete control)
# Outline: as §1
# Pigweed, Redroot [12] = assay: Test A preemergence; type: in vivo, Amaranthus retroflexus; conditions: 1000 g ai/ha, 0 to 100 scale (0 no effect, 100 complete control), 10 days
# Source text: as §3
# barnyardgrass [13] = assay: Test B flooded paddy test; type: in vivo, Echinochloa crus-galli; conditions: 250 g ai/ha, Flood, 13 days, 0 to 100 scale (0 no effect, 100 complete control)
# Outline: as §1
Compound,"Plant response rating, Rice (rice)","Plant response rating, Blackgrass (blackgrass)","Plant response rating, Ragweed (ragweed [1])","Plant response rating, Corn (corn)","Plant response rating, Sedge, Umbrella (sedge, umbrella)","Plant response rating, Ragweed (ragweed [2])","Plant response rating, Foxtail, Giant (foxtail, giant [3])","Plant response rating, Ryegrass, Italian (ryegrass, Italian [4])","Plant response rating, Pigweed, Redroot (Pigweed, Redroot [5])","Plant response rating, Wheat (wheat)","Plant response rating, Barnyardgrass (barnyardgrass [6])","Plant response rating, Barnyardgrass (barnyardgrass [7])","Plant response rating, Kochia (kochia [8])","Plant response rating, Ryegrass, Italian (ryegrass, Italian [9])","Plant response rating, Kochia (kochia [10])","Plant response rating, Foxtail, Giant (foxtail, giant [11])","Plant response rating, Ducksalad (ducksalad)","Plant response rating, Pigweed, Redroot (Pigweed, Redroot [12])","Plant response rating, Barnyardgrass (barnyardgrass [13])"
CC1CN(C(=O)c2cccc(-n3cncn3)c2)c2cccc(Br)c2O1 (stereo not drawn) [Compound 25],0,90,0,70,0,0,100,100,40,70,90,50,50,90,30,90,35,100,0
C#Cc1cccc2c1OC(C)CN2C(=O)c1cccc(-n2cncn2)c1 (stereo not drawn) [Compound 30],0,70,0,10,0,0,80,100,30,40,30,20,10,70,20,40,0,100,0
Cc1cccc2c1OC(C)CN2C(=O)c1ccc(C#N)c(-n2cncn2)c1 (stereo not drawn) [Compound 29],0,70,0,80,0,0,100,90,50,60,90,70,10,50,20,90,0,60,0
